Ends that are not written are not given here.
Assays:
Langerhans islets = assay: Insulin secretion-promoting activity in isolated Langerhans islets; assay type: cell-based, ICR mouse; details: 16.7 mM glucose, 37° C. 30 min, FIG. 13
From the text: Langerhans islets were extracted from ICR mouse pancreas with collagenase, 2 to 3 Langerhans islets were placed per well of 24-well plates, and cultured overnight.

human GLP-1 receptor = biological target: T1, human GLP-1 receptor (Homo sapiens, UniProt P43220); assay: Cyclic AMP production activity in CHO-K1 cells expressing human GLP-1 receptors; assay type: cell-based; details: compared with native GLP-1; 37° C. 30 min; FIG. 7
T1 construct: expressed in transfected cells; host or cells: Chinese hamster ovary CHO-K1 cells
Method: 10 μl of 5N hydrochloric acid was added to the buffer to stop the incubation.

trypsin [1] = biological target: T2, trypsin (Sus scrofa, UniProt P00761); details: pH 7.8
Method: 5 μl of 500 μg/ml trypsin solution (Promega: Cat. No. V5113) was added to 100 μl of this solution, and reacted at 37° C. for 1 hour. The reaction was stopped by adding 1200 μl of 71.5% ethanol (final 65%). The supernatant was collected by centrifugation at 15,000 rpm at 4° C. for 5 min, and evaporation was carried out. The dried solids were dissolved in distilled water and used for measuring activity.
The reaction was stopped by adding 1200 μl of 71.5% ethanol (final 65%). The supernatant was collected by centrifugation of 15,000 rpm at 4° C. for 5 min and evaporation was carried out. The dried solids were dissolved in distilled water and used for measuring the activity.

[2] = Hypoglycemic effect in oral glucose tolerance test (OGTT) by subcutaneous administration; assay type: in vivo; details: mice fasted overnight, 1 g/kg glucose orally, peptide 5, 20 μg/kg dorsal subcutaneously; FIG. 14
Method: Physiological saline was administered to the control group. Before loading glucose and 20, 60, 120 min after loading, blood was collected chronologically from subocular venous plexus, to measure blood glucose level. […] Moreover, the action continued until 120 min after the administration (FIG. 15).

DPP-IV = DPP-IV (Sus scrofa, UniProt P22411)
trypsin [3] = biological target: T2, trypsin
Method: To this diluent, 6 μl of 83 μg/ml trypsin solution (Promega: Cat. No. V5113) was added. The resultant was reacted at 37° C. for 1, 2, 4, 6 or 20 hours, and then the reaction was stopped by adding 1200 μl of 71.5% ethanol (final 65%). The supernatant was collected by centrifugation at 15,000 rpm at 4° C. for 5 min and evaporation was carried out. The dried solids were dissolved in distilled water and the activity was measured.

T2 sequence (P00761 9-231): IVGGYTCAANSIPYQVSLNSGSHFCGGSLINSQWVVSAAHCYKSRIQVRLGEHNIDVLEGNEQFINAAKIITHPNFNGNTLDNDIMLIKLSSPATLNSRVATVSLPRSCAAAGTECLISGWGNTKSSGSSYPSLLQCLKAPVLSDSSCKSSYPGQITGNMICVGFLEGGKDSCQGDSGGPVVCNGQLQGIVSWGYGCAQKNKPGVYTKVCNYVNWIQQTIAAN
Sequence of DPP-IV (P22411 whole entry): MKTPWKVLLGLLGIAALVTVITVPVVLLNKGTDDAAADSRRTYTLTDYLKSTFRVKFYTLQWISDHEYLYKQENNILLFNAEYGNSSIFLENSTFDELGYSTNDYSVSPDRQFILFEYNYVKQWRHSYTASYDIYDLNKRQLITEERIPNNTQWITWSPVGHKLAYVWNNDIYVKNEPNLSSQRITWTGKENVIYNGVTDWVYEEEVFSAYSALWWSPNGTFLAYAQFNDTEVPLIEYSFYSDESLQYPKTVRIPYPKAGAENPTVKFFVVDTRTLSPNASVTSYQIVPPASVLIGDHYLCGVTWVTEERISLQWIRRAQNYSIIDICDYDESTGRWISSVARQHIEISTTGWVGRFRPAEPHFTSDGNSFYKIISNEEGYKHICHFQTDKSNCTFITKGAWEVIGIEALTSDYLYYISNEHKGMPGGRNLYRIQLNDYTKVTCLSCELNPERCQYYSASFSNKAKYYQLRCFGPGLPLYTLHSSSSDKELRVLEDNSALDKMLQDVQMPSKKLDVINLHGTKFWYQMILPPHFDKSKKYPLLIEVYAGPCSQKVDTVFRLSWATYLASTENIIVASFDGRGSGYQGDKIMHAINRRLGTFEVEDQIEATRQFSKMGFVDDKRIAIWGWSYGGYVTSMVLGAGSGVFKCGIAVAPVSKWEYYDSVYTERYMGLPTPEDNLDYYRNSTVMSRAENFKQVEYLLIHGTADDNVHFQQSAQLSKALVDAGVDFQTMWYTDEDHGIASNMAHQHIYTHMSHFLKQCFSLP
T1 sequence (P43220 24-463): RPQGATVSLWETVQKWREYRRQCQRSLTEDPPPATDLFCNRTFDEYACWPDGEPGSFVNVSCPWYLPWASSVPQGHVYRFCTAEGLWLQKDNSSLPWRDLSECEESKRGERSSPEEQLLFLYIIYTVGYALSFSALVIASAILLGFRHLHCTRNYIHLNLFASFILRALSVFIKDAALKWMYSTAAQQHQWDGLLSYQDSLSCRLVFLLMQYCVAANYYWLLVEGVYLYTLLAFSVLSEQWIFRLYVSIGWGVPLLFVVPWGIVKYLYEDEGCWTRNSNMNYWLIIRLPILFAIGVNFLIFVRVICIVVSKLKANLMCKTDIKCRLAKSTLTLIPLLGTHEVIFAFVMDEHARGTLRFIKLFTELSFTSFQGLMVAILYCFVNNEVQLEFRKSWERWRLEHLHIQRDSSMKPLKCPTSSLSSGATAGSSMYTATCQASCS

Row | DPP-IV resistance (DPP-IV) | Substance | insulin secretion-promoting activity (Langerhans islets) | cyclic AMP production activity (human GLP-1 receptor) | activity before and after trypsin treatment (trypsin resistance) (trypsin [1]) | peak value of blood glucose increase / hypoglycemic action [2] | insulin secretion-promoting activity at high concentration (Langerhans islets; high concentration) | variation in activity by trypsin treatment (trypsin resistance) (trypsin [1]) | cyclic AMP production activity versus trypsin treatment time (trypsin [3])
1 | – | GLP-1 (7-36 amide) (HAEGTFTSDVSSYLEGQAAKEFIAWLVKGR-NH2) [native GLP-1, made by solid phase synthesis, reference compound] | Amount-dependent insulin secretion-promoting activity | – | – | – | – | – | –
2 | – | HAEGTFTSDVSSYLEGQAAQEFIAWLVNGR-NH2 [[Gln^26, Asn^34]-GLP-1 (7-36 amide)] | – | same level of cyclic AMP production activity as native GLP-1 | no difference of activity before and after trypsin treatment | – | – | – | –
3 | obvious DPP-IV resistance | HSEGTFTSDVSSYLEGQAAQEFIAWLVNGR-OH [[Ser^8, Gln^26, Asn^34]-GLP-1 (7-36), [Ser^8, Gln^26, Asn^34]-GLP-1 (7-36)] | Amount-dependent insulin secretion-promoting activity | – | – | strong action | strong insulin secretion-promoting activity | no variation in activity by trypsin treatment | –
4 | obvious DPP-IV resistance | [Ser^8, Gln^26, Asp^34]-GLP-1 (7-36) | Amount-dependent insulin secretion-promoting activity | – | – | – | – | no variation in activity by trypsin treatment | the activity was maintained regardless of the trypsin treatment time
